{"source": "patent US6573297B2", "about": "“(2-substituted oxyphenyl)alkanamide derivative, hair growth promoter and external composition for skin using the same” (Shiseido Co., Ltd., priority 1999, dated 2003)"}
{"tested_on": "C3H/HeNCrj mice", "test": "Hair Regrowth Test", "format": "in vivo", "details": "23 days of application; 0.1 ml of 0.1 w/v % ethanol solution on shaved back once a day; average of group (10 mice)", "description": "(§1) By using C3H/HeNCrj mice, whose hair cycle was in resting stage, the experiment was performed according to the method of Ogawa et. al. (Normal and Abnormal Epidermal Differentiation, Edited by M. Seiji and I. A. Bernstein, Pages 159-170, 1982, Todai Shuppan). 10 mice were used in a group and the mice's hair within the area of 3×4 cm of the regions of back was shaved by a clipper and a shaver. 0.1 ml of ethanol (negative contrast) or ethanol solution of the tested compound (0.1 w/v %) was applied on the shaved portion once a day. For hair regrowth effect of the tested compound, the hair regrowth area of mice's region of back was measured and ratio of the hair regrowth area with respect to the shaved area was evaluated as hair regrowth area rate (%).", "units": {"Hair Regrowth Area Rate": "%"}}
{"compound": "CCCCCCCCCCCCCCCCCCNC(=O)Oc1ccccc1CCC(=O)NCCCN(C)C", "note": "[Compound 1, 2-[3-[[3-(Dimethylamino)propyl]amino]-3-oxopropyl]phenyl N-octadecylcarbamate]", "Hair Regrowth Area Rate": 69}
{"compound": "CCCCCCCCCCCCCCCCCCNC(=O)Oc1ccccc1CCC(=O)NCCCN(C)C.Cl", "note": "[Compound 2, 2-[3-[[3-(Dimethylamino)propyl]amino]-3-oxopropyl]phenyl N-octadecylcarbamate hydrochloride]", "Hair Regrowth Area Rate": 10}
{"tested_on": "C3H/HeNCrj mice", "test": "Hair Regrowth Test", "format": "in vivo", "details": "24 days of application; 0.1 ml of 0.1 w/v % ethanol solution on shaved back once a day; average of group (10 mice)", "description": "as §1", "units": {"Hair Regrowth Area Rate": "%"}}
{"compound": "CCCCCCCCCCCCCCCCCCNC(=O)Oc1ccccc1CCC(=O)N1CCN(C)CC1", "note": "[Compound 3, 2-[3-(4-Methylpiperazino)-3-oxopropyl]phenyl N-octadecylcarbamate]", "Hair Regrowth Area Rate": 100}
{"compound": "CCCCCCCCCCCCCCCCCCNC(=O)Oc1ccccc1CCC(=O)N1CCN(C)CC1.Cl", "note": "[Compound 4, 2-[3-(4-Methylpiperazino)-3-oxopropyl]phenyl N-octadecylcarbamate hydrochloride]", "Hair Regrowth Area Rate": 100}
{"compound": "CCCCCCCCCCCCCCCCCCNC(=O)Oc1ccccc1CCC(=O)NCCCN1CCOCC1", "note": "[Compound 5, 2-{3-[(3-Morpholinopropyl)amino]-3-oxopropyl}phenyl N-octadecylcarbamate]", "Hair Regrowth Area Rate": 16}
{"compound": "CCCCCCCCCCCCCCCCCCNC(=O)Oc1ccccc1CCC(=O)NCCCN1CCOCC1.Cl", "note": "[Compound 6, 2-{3-[(3-Morpholinopropyl)amino]-3-oxopropyl}phenyl N-octadecylcarbamate hydrochloride]", "Hair Regrowth Area Rate": 17}
{"compound": "CCCCCCCCCCCCCCCCCCOc1ccccc1CCC(=O)NCCCN(C)C.Cl", "note": "[Compound 8, N-[3-(Dimethylamino)propyl]-3-[2-(octadecyloxy)phenyl]propanamide hydrochloride]", "Hair Regrowth Area Rate": 100}
{"compound": "CCCCCCCCCCCCCCCCCCOc1ccccc1CCC(=O)NCCCN1CCOCC1.Cl", "note": "[Compound 10, N-(3-Morpholinopropyl)-3-[2-(octadecyloxy)phenyl]propanamide hydrochloride]", "Hair Regrowth Area Rate": 38}
{"compound": "CCCCCCCCCCCCCCCCCCOc1ccccc1CCC(=O)N1CCN(C)CC1.Cl", "note": "[Compound 12, 1-(4-Methylpiperazino)-3-[2-(octadecyloxy)phenyl]-1-propanone hydrochloride]", "Hair Regrowth Area Rate": 38}
